{"source": "patent US8329421B2", "about": "“Methods of predicting response of a neoplasm to an EGFR inhibitor and detecting interactions between EGFR and an EGFR regulatory protein” (Ventana Medical Systems, Inc., priority 2007, dated 2012)", "key": {"NSCLC cancer patients [1]": {"tested_on": "NSCLC cancer patients", "test": "Response of NSCLC patients to TARCEVA therapy by 5B7/3C6 category (Example 7)", "assay_type": "in vivo, human", "conditions": "150 mg/day orally", "protocol": "(§1) Tissue arrays containing biopsy samples from at least 100 NSCLC cancer patients are obtained. Each patient is treated with TARCEVA™ (EGFR inhibitor) therapy with a dosage of 150 mg/day given orally. Each patient has post-therapy follow-up for up to 5 years. Each biopsy sample is fixed in 10% NBF and paraffin embedded. Five (5) micron sections of each biopsy sample are cut and arrayed on positively charged glass slides. The slides are stained with an RD-binding molecule (e.g., clone 5B7) and an ED-binding molecule (e.g., clone 3C6) according to the protocols in Example 2. The resulting stained array slides are scored by light microscopy by a pathologist according to the following criteria:\n(§2) The score for each case is recorded in a database comparing the score for each binding molecule (e.g., 5B7 or 3C6). Approximately 65% of cases are expected to fall into category 1, 19% in category 2, <1% in category 3 and 15% in category 4. Patient outcome is directly related to the scoring category as indicated in Table 2 for an ID-based therapy."}, "HCC cancer patients": {"tested_on": "HCC cancer patients", "test": "Response of HCC patients to IRESSA therapy by 5B7/3C6 category (Example 11)", "assay_type": "in vivo, human", "conditions": "200-500 mg/day orally", "protocol": "Tissue arrays containing biopsy samples from at least 100 HCC cancer patients are obtained (see, for example, samples collected in JS 0414, “A Pilot Study of Adjuvant Therapy of Gefitinib (Iressa, ZD1839) in Patients with Resectable Hepatocellular Carcinoma”, ClinicalTrials.gov Identifier No. NCT00228501). Each patient is treated with IRESSA™ (EGFR-inhibitor) therapy with a dosage of 200-500 mg/day given orally. Each patient has post-therapy follow-up for at least 12 months. Each biopsy sample is fixed in a standard fixative (e.g., 10% NBF) and paraffin embedded. Sections of each biopsy sample (e.g., 5 μm thick) are cut and arrayed on positively charged glass slides. The slides are stained with an RD-binding molecule (e.g., clone 5B7) and an ED-binding molecule (e.g., clone 3C6) according to the protocols in Example 2. The resulting stained array slides are scored by light microscopy by a pathologist according to the following criteria:\nas §2, with “60%” for “65%”, “13%” for “19%”, “5%” for “<1%”, “22%” for “15%”"}, "NSCLC cancer patients [2]": {"tested_on": "NSCLC cancer patients", "test": "Response of NSCLC patients to IRESSA therapy by 5B7/3C6 category (Example 6)", "assay_type": "in vivo, human", "conditions": "250 mg/day orally", "protocol": "as §1, with “IRESSA™ (EGFR-inhibitor)” for “TARCEVA™ (EGFR inhibitor)”, “250” for “150”\nas §2"}, "[3]": {"tested_on": "non-small cell lung cancer", "conditions": "cited from earlier work"}, "breast cancer patients": {"tested_on": "breast cancer patients", "test": "Response of breast cancer patients to lapatinib therapy by 5B7/3C6 category (Example 10)", "assay_type": "in vivo, human", "conditions": "1250-1500 mg/day orally", "protocol": "Tissue arrays containing biopsy samples from at least 100 breast cancer patients are obtained. Each patient is treated with lapatinib (TYKERB™) (HER1 (EGFR)/HER2-inhibitor) with a dosage of 1250-1500 mg/day given orally. Each patient has post-therapy follow-up for at least 20 months. Each biopsy sample is fixed in a standard fixative and paraffin embedded. Sections of each biopsy sample (e.g., 5 μm thick) are cut and arrayed on positively charged glass slides. The slides are stained with an RD-binding molecule (e.g., clone 5B7) and an ED-binding molecule (e.g., clone 3C6) according to the protocols in Example 2. The resulting stained array slides are scored by light microscopy by a pathologist according to the following criteria:\nas §2, with “20%” for “65%”, “16%” for “19%”, “3%” for “<1%”, “61%” for “15%”"}, "clone 5B7": {"tested_on": "clone 5B7", "test": "Peptide inhibition study (epitope mapping) on EGFR-positive lung squamous cell carcinoma", "assay_type": "binding", "conditions": "1000-fold molar excess of peptide, pre-incubated 1 hour at room temperature", "source_text": "The epitope for the EGFR regulatory-domain-specific monoclonal antibody, clone 5B7, was mapped by peptide inhibition studies. Because the L2G Peptide was used as the immunogen and was used to screen for positive clones, it was known that the 5B7 epitope must be within that 19-amino acid sequence (see SEQ ID NO: 2). The L2G Peptide, a peptide containing the 13 C-terminal amino acid residues of the L2G Peptide, and a peptide containing the six N-terminal amino acid residues of the L2G Peptide plus three additional N-terminal residues (i.e., QIS) corresponding to the respective positions in the human EGFR sequence. The peptides were synthesized by Genemed Synthesis, Inc. (South San Francisco, Calif.).\nA known EGFR-positive lung squamous cell carcinoma was chosen for the peptide inhibition study. The 5B7 antibody was pre-incubated with each peptide for 1 hour at room temperature before application to the tissue. A 1000-fold molar excess of peptide compared to antibody was used."}, "[4]": {"conditions": "NSCLC patients in categories 1 and 3"}, "[5]": {"conditions": "NSCLC patients in categories 2 and 4"}}, "note": "Read-outs that look alike come from different tables or passages of the source."}
{"compound": "C#Cc1cccc(Nc2ncnc3cc(OCCOC)c(OCCOC)cc23)c1", "note": "[erlotinib]", "values": [{"measurement": "patient response to therapy", "setting": "NSCLC cancer patients [1]; [4]", "result": "objective response"}, {"measurement": "patient response to therapy", "setting": "NSCLC cancer patients [1]; [5]", "result": "not significantly respond"}]}
{"compound": "COc1cc2ncnc(Nc3ccc(F)c(Cl)c3)c2cc1OCCCN1CCOCC1", "note": "[gefitinib]", "values": [{"measurement": "patient response to therapy", "setting": "HCC cancer patients; HCC patients in categories 1 and 3", "result": "objective response"}, {"measurement": "patient response to therapy", "setting": "HCC cancer patients; HCC patients in categories 2 and 4", "result": "not significantly respond"}, {"measurement": "patient response to therapy", "setting": "NSCLC cancer patients [2]; [4]", "result": "objective response"}, {"measurement": "patient response to therapy", "setting": "NSCLC cancer patients [2]; [5]", "result": "not significantly respond"}, {"measurement": "NSCLC patients who responded to the drug", "setting": "[3]; 250 gefitinib per day", "result": "about 10%"}, {"measurement": "NSCLC patients who responded to the drug", "setting": "[3]; 500 gefitinib per day", "result": "about 20%"}]}
{"compound": "CS(=O)(=O)CCNCc1ccc(-c2ccc3ncnc(Nc4ccc(OCc5cccc(F)c5)c(Cl)c4)c3c2)o1", "note": "[lapatinib]", "values": [{"measurement": "patient response to therapy", "setting": "breast cancer patients; breast cancer patients in categories 1 and 3", "result": "objective response"}, {"measurement": "patient response to therapy", "setting": "breast cancer patients; breast cancer patients in categories 2 and 4", "result": "not significantly respond"}]}
{"compound": "LDNPDYQQDFFPKEAKPNG (listed as Homo sapiens) [Peptide 3]", "values": [{"measurement": "inhibition of 5B7 binding to tissue", "setting": "clone 5B7", "result": "completely inhibited"}]}
{"compound": "Peptide 1: amino acids 1164-1175 of SEQ ID NO: 1 (QISLDNPDYQQD; listed as Homo sapiens)", "values": [{"measurement": "inhibition of 5B7 binding to tissue", "setting": "clone 5B7", "result": "partial inhibition"}]}
{"compound": "Peptide 2: amino acids 7-19 of SEQ ID NO: 2; 13 C-terminal amino acid residues of the L2G Peptide (QQDFFPKEAKPNG; listed as Homo sapiens)", "values": [{"measurement": "inhibition of 5B7 binding to tissue", "setting": "clone 5B7", "result": "complete inhibition"}]}
